Patent US10149887B2, “Peptides and peptidomimetics in combination with t cell activating and/or checkpoint inhibiting agents for cancer treatment” (CanBas Co., Ltd., priority 2015, dated 2018)
Square brackets hold non-standard residues; d marks the D form. Ends that are not written are not given here. Peptide text beside a SMILES is read from it. dPhe(F5) = N[C@H](Cc1c(F)c(F)c(F)c(F)c1F)C(=O)O; dBpa = N[C@H](Cc1ccc(C(=O)c2ccccc2)cc1)C(=O)O; dCha = N[C@H](CC1CCCCC1)C(=O)O

Columns and labels:
Jurkat cells [1] = assay: G2 checkpoint abrogation, flow cytometry of bleomycin treated Jurkat cells; type: cell-based, human; details: for G2 abrogating dose: dose with 40 μg/ml bleomycine giving detectable G2 checkpoint abrogation, 24 hours; for G2 checkpoint abrogating activity (in words): Jurkat cells with bleomycin 40 μg/ml
Jurkat cells [2] = assay: Side effect of peptide used alone: Jurkat cell cycle disturbance (flow cytometry); type: cell-based; details: dose that produced Jurkat cell cycle disturbance, peptide alone
Description: Cell-cycle analysis The cell cycle status of the cells treated with bleomycin or adriamcin were analyzed by flow cytometry as described by Kawabe (1997) Nature 385:454-458. In brief, two million cells were re-suspended and incubated in 200 μl Krishan's solution (0.1% Sodium citrate, 50 μg/ml PI, 20 μg/ml RNase A and 0.5% NP-40) for 1 hr at 4° C. and analyzed by a flow cytometry, FACScan™ (Beckton Dickinson, Mountain View, Calif.) with the program CELLQuest™ (Beckton Dickinson).
(§1) The “Appearance of side effect when used alone” indicates the peptide/peptidomimetic dose that produced Jurkat cell cycle disturbance, i.e., the appearance of significant amounts of SubG1 cells (dead cells) or cells in which the DNA content of each varies more than usual. […] The “G2 abrogating dose” indicates the peptide/peptidomimetic dose with 40 μg/ml bleomycine that produced detectable G2 checkpoint abrogation activity following treatment for 24 hours. The “Appearance of side effect when used with colchicine” indicates the peptide/peptidomimetic dose with 5 μg/ml colchicine that produced Jurkat cell cycle disturbance following treatment for 24 hours.

Jurkat cells [3] = assay: M phase checkpoint abrogation / non specific toxicity, colchicine treated Jurkat cells; type: cell-based; details: dose with 5 μg/ml colchicine that produced Jurkat cell cycle disturbance, 24 hours
Description: Flow cytometry analysis of M phase checkpoint abrogation by the compounds was performed using human T cell leukemia Jurkat cell line treated with colchicine (5 μg/ml or 0.5 μg/ml) and various doses of peptide/peptidomimetics for 24 hr (FIG. 12). The DNA of the cells was stained and analyzed by flow cytometry as described above.
as §1
A comparison between G2 checkpoint abrogating activity and non specific toxicity (M checkpoint abrogation) by CB501 was performed. In brief, Jurkat cells were treated with 40 μg/ml bleomycin or 0.5 μg/ml colchicine for G2 checkpoint abrogating activity and non specific toxicity, respectively. The DNA amount in each of the treated cells was analyzed by flow cytometry, as previously described.

[4] = Human serum treatment analysis (residual G2 checkpoint abrogating activity); type: in vitro ADME; details: 37 degrees
Description: Serum analysis was performed to determine the stability of peptides in mouse and human serum. Briefly, peptides (10 mM or 2.5 mM) were incubated with freshly prepared human serum at 37 degrees for 1 hr. […] Jurkat cells were treated with the serum with or without peptides and bleomycin (40 μg/ml) and incubated for 24 hr. The population of G2 phase cells was determined by flow cytometry as previously described. The residual G2 checkpoint abrogating activity of serum treated peptides were determined by comparing the % G2 cells of the treated serum and the standard curve produced with medium treated peptides, bleomycin and Jurkat cells (Table 5A).

[5] = biological target: T1, recombinant human full length Chk1 (Homo sapiens, UniProt O14757); assay: In vitro kinase inhibition (CycLex), phosphorylation of serine 216 on GST-Cdc25C; type: biochemical
T1 construct: baculovirus derived recombinant human full length Chk1 with histidine tag; histidine tag; host or cells: baculovirus system (insect cells) for Chk1; E. coli for the GST-Cdc25C substrate
T1 sequence (O14757 1-476): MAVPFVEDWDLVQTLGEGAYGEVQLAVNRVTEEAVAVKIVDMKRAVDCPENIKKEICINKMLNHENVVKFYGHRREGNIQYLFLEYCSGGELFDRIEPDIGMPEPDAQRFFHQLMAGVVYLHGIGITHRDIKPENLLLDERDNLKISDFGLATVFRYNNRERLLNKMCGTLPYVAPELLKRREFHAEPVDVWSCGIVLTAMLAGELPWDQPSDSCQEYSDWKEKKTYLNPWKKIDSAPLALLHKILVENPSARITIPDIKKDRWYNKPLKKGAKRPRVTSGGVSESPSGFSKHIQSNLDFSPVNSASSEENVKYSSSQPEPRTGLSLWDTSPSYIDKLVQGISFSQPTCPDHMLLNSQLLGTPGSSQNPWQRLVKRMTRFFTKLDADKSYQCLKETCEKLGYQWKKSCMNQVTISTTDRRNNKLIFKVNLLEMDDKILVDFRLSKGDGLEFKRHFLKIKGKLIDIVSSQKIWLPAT
Description: (§2) In vitro kinase inhibition analysis was performed by CycLex, Co. Ltd., Nagano, Japan. Briefly, baculovirus derived recombinant human full length Chk1 with histidine tag or E. Coli derived recombinant human full length Chk2 fused with GST were used as kinases. E. Coli derived recombinant GST-Cdc25C (amino acis 167-267) was used as a substrate. Reaction conditions were 20 mM Hepes-KOH (pH7.5), 1 mM DTT, 80 μg/ml BSA, 10 mM MgCl2 and […] at 30 degree for 60 min. The phosphorylation of serine 216 on GST-Cdc25C was detected by anti-Cdc25C-phosphorylated 5216 antibody with enzyme linked immune assay.

[6] = biological target: T2, recombinant human full length Chk2 (Homo sapiens, UniProt O96017); assay: as above; type: biochemical
T2 construct: E. Coli derived recombinant human full length Chk2 fused with GST; host or cells: E. coli
T2 sequence (O96017 whole entry, the tested form may be a part): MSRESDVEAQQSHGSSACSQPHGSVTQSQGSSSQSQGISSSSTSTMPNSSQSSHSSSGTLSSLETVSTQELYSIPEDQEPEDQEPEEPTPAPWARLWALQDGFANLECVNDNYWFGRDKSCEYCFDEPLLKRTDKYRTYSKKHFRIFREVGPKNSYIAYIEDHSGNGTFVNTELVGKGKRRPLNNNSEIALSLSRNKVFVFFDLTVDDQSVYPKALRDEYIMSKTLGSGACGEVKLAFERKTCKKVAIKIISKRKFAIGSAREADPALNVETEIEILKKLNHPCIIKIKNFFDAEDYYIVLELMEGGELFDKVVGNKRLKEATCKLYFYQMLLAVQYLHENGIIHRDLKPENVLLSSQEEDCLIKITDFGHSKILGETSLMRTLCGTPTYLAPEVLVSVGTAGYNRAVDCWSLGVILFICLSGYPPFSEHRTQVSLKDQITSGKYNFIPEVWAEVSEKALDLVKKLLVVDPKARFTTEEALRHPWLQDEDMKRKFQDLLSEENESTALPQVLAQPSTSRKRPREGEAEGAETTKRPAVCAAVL
Description: as §2

Molecule: N=C(N)NCCC[C@H](NC(=O)CNC(=O)[C@@H](N)Cc1ccc(O)cc1)C(=O)N[C@@H](CCCCN)C(=O)N[C@@H](CCCCN)C(=O)N[C@@H](CCCNC(=N)N)C(=O)N[C@@H](CCCNC(=N)N)C(=O)N[C@@H](CCC(N)=O)C(=O)N[C@@H](CCCNC(=N)N)C(=O)N[C@@H](CCCNC(=N)N)C(=O)N[C@@H](CCCNC(=N)N)C(=O)N[C@@H](CC1CCCCC1)C(=O)N[C@@H](Cc1c(F)c(F)c(F)c(F)c1F)C(=O)N[C@@H](CCCNC(=N)N)C(=O)N[C@@H](CO)C(=O)N1CCC[C@H]1C(=O)N[C@@H](CO)C(=O)N[C@@H](Cc1ccc(O)cc1)C(=O)N[C@@H](Cc1ccc(O)cc1)C(=O)O [CBP413, (1-Tyr)(1-Gly)(1-Arg)(1-Lys)(1-Lys)(1-Arg)(1-Arg)(1-Gln)(1-Arg)(1-Arg)(1-Arg)(1-Cha)(1-Phe-2,3,4,5,6-F)(1-Arg)(1-Ser)(1-Pro)(1-Ser)(1-Tyr)(1-Tyr)]
- G2 abrogating dose (Jurkat cells [1]): ≥1.56 µM
- Appearance of side effect when used alone (Jurkat cells [2]): >25 µM
- Appearance of side effect when used with Colchicine (Jurkat cells [3]): >25 µM
- Residual activity of peptide after 1 hr human serum treatment [4]: <0.4% of original

Molecule: N=C(N)NCCC[C@@H](NC(=O)[C@@H](CCCNC(=N)N)NC(=O)[C@@H](CCC(N)=O)NC(=O)[C@@H](CCCNC(=N)N)NC(=O)[C@@H](CCCNC(=N)N)NC(=O)[C@@H](CCCNC(=N)N)NC(=O)[C@@H](CC1CCCCC1)NC(=O)[C@@H](Cc1c(F)c(F)c(F)c(F)c1F)NC(=O)[C@@H](CO)NC(=O)[C@@H](Cc1c[nH]c2ccccc12)NC(=O)[C@@H](CO)NC(=O)[C@@H](Cc1ccc(C(=O)c2ccccc2)cc1)NC(=O)[C@H](N)Cc1ccc(O)cc1)C(=O)O [CBP500, (d-Tyr)(d-Bpa)(d-Ser)(d-Trp)(d-Ser)(d-Phe-2,3,4,5,6-F)(d-Cha)(d-Arg)(d-Arg)(d-Arg)(d-Gln)(d-Arg)(d-Arg)] (H-[dY][dBpa][dS][dW][dS][dPhe(F5)][dCha][dR][dR][dR][dQ][dR][dR]-OH; N-terminus and C-terminus assumed)
- G2 abrogating dose (Jurkat cells [1]): ≥0.39 µM
- Appearance of side effect when used alone (Jurkat cells [2]): >50 µM
- Appearance of side effect when used with Colchicine (Jurkat cells [3]): >12.5 µM
- IC50 [5]: 5.6 µM
- IC50 [6]: 8 µM

Molecule: N=C(N)NCCC[C@@H](NC(=O)[C@@H](CCCNC(=N)N)NC(=O)[C@@H](CCC(N)=O)NC(=O)[C@@H](CCCNC(=N)N)NC(=O)[C@@H](CCCNC(=N)N)NC(=O)[C@@H](CCCNC(=N)N)NC(=O)[C@@H](CC1CCCCC1)NC(=O)[C@@H](Cc1c(F)c(F)c(F)c(F)c1F)NC(=O)[C@@H](CO)NC(=O)[C@@H](Cc1c[nH]c2ccccc12)NC(=O)[C@@H](CO)NC(=O)[C@@H](CC(=O)O)NC(=O)[C@H](N)Cc1ccc(C(=O)c2ccccc2)cc1)C(=O)O [CBP505, (d-Bpa)(d-Asp)(d-Ser)(d-Trp)(d-Ser)(d-Phe-2,3,4,5,6-F)(d-Cha)(d-Arg)(d-Arg)(d-Arg)(d-Gln)(d-Arg)(d-Arg)] (H-[dBpa][dD][dS][dW][dS][dPhe(F5)][dCha][dR][dR][dR][dQ][dR][dR]-OH; N-terminus and C-terminus assumed)
- IC50 [5]: 63.4 µM
- IC50 [6]: > 100 µM

Molecule: (d-Arg)(d-Arg)(d-Arg)(d-Bpa)(d-Arg)(d-Trp)(d-Arg)(d-Phe-2,3,4,5,6-F)(d-Cha) ([dR][dR][dR][dBpa][dR][dW][dR][dPhe(F5)][dCha]) [CBP701]
- G2 checkpoint abrogating activity (in words) (Jurkat cells [1]): retain G2 checkpoint abrogating activity comparable to other peptides having significant G2 checkpoint abrogating activity

Molecule: (d-Arg)(d-Arg)(d-Bpa)(d-Arg)(d-Arg)(d-Arg)(d-Phe-2,3,4,5,6-F)(d-Cha) ([dR][dR][dBpa][dR][dR][dR][dPhe(F5)][dCha]) [CBP700]
- G2 checkpoint abrogating activity (in words) (Jurkat cells [1]): retain G2 checkpoint abrogating activity comparable to other peptides having significant G2 checkpoint abrogating activity
